Read-outs that look alike come from different tables or passages of the source.
Experiment: PK profile of HBI-2375 in plasma and brain in C57BL/6J mice
Type: in vivo
Conditions: for AUClast / AUC(0-t) / Tmax at 7 day / Cmax at 7 day / Tmax / Cmax / MRT last: C57BL/6J mice; for concentration at 24 h / Kp / AUC(0-t): C57BL/6J; for concentration at 24 h / Kp / AUC(0-t) / Tmax at 7 day / Cmax at 7 day / Tmax / Cmax / MRT last: mouse; for concentration at 24 h: read-out: Mean Brain Concentration, Cmin = 24 h; for AUClast Ratio, group 2 vs 1 / Cmax Ratio, group 2 vs 1: 80 vs 40 mg/kg PO; for AUClast ratios females/males / Cmax ratios females/males: all three dose groups
Experimental: EXAMPLE 4: PK profile of compound of Formula (IIIb) (HBI-2375, HYBI-84) in plasma and brain in C57BL/6J mice: This study was conducted in accordance with the Study Protocol and Pharmaron (Ningbo) TSP's Standard Operating Procedures (SOPs) following all regulatory protocols. This study was conducted under non-GLP environment.
Following single oral gavage administration of HBI-2375 at 40 mg/kg, 80 mg/kg, and 7-day repeat oral gavage administration at 80 mg/kg in C57BL/6J mice, concentrations of HBI-2375 in plasma and brain were determined by LC-MS/MS methods. […] The maximal concentrations of HBI-2375 in brain were all observed at 4 hr post-dose. […] The exposure of HBI-2375 in plasma and brain of females were closed to that of males, the ratios were 0.989-1.22 for plasma, and 1.10-1.34 for brain.

[1] = both sexes, single PO 40 mg/kg, brain, mean
[2] = both sexes, single PO 40 mg/kg, plasma, mean
[3] = both sexes, single PO 80 mg/kg, brain, mean
[4] = both sexes, single PO 80 mg/kg, plasma, mean
[5] = mice, 7-day consecutive dosing 80 mg/kg
[6] = mice, all dose groups, listed as HBI-2375

Cc1c(F)c(N)cc(C(=O)Nc2cc(-n3cc(C(=O)N4CCN(C)CC4)nn3)c(F)cc2N2C[C@@H](C)N(C)[C@@H](C)C2)c1Cl [HYBI-084, 5-amino-2-chloro-4-fluoro-N-(4-fluoro-5-(4-(4-methylpiperazine-1-carbonyl)-1H-1,2,3-triazol-1-yl)-2-((3S,5R)-3,4,5-trimethylpiperazin-1-yl)phenyl)-3-methylbenzamide]
AUClast (7-day repeat PO 80 mg/kg, brain, female): 11446 ng·h/g | AUClast (7-day repeat PO 80 mg/kg, brain, male): 8555 ng·h/g | AUClast (7-day repeat PO 80 mg/kg, brain, mean): 10001 ng·h/g | AUClast (single PO 40 mg/kg, brain, female): 2179 ng·h/g | AUClast (single PO 40 mg/kg, brain, male): 1879 ng·h/g | AUClast (single PO 40 mg/kg, brain, mean): 2029 ng·h/g | AUClast (single PO 80 mg/kg, brain, female): 6129 ng·h/g | AUClast (single PO 80 mg/kg, brain, male): 5559 ng·h/g | AUClast (single PO 80 mg/kg, brain, mean): 5844 ng·h/g | concentration at 24 h (brain, po, 80 mg/kg, Repeat PO Mouse at 80 mg/kg): 136 ng/g | concentration at 24 h (brain, po, 80 mg/kg, Single PO Mouse at 80 mg/kg): 55 ng/g | Kp (both sexes, brain, oral, 40 mg/kg, mice, single dosing 40 mg/kg, read-out: AUC exposure in brain as % of that in plasma): 0.283 to 0.332 | Kp (both sexes, brain, oral, 80 mg/kg, mice, single dosing 80 mg/kg, read-out: AUC exposure in brain as % of that in plasma): 0.361 to 0.388 | Kp (both sexes, brain, oral, mice, all dose groups, read-out: brain exposure as % of AUC in plasma): 0.283 to 0.588 | AUC(0-t) (both sexes, plasma, po, 40 mg/kg, single PO 40 mg/kg, mean): 6600 ng·h/mL | AUC(0-t) (both sexes, plasma, po, 80 mg/kg, 7-day repeat PO 80 mg/kg, mean): 17700 ng·h/mL | AUC(0-t) (both sexes, plasma, po, 80 mg/kg, single PO 80 mg/kg, mean): 15600 ng·h/mL | Tmax at 7 day (both sexes, 7-day repeat PO 80 mg/kg, brain): 4 h | Cmax at 7 day (both sexes, 7-day repeat PO 80 mg/kg, brain, mean): 807 ng/g | Tmax at 7 day (both sexes, 7-day repeat PO 80 mg/kg, plasma): 1 h | Cmax at 7 day (both sexes, 7-day repeat PO 80 mg/kg, plasma, mean): 2530 ng/mL | Tmax (both sexes, single PO 40 mg/kg, brain): 4 h | Cmax [1]: 180 ng/g | MRT last [1]: 8.15 h | Tmax (both sexes, single PO 40 mg/kg, plasma): 0.5 h | Cmax [2]: 1140 ng/mL | MRT last [2]: 5.26 h | Tmax (both sexes, single PO 80 mg/kg, brain): 4 h | Cmax [3]: 528 ng/g | MRT last [3]: 8.21 h | Tmax (both sexes, single PO 80 mg/kg, plasma): 0.5 h | Cmax [4]: 3970 ng/mL | MRT last [4]: 5.16 h | Kp (female, brain, po, 40 mg/kg, mice, single PO 40 mg/kg, female, read-out: AUClast Ratio Brain/Plasma): 0.332 | Kp (female, brain, po, 80 mg/kg, mice, repeat PO 80 mg/kg, female, read-out: AUClast Ratio Brain/Plasma): 0.588 | Kp (female, brain, po, 80 mg/kg, mice, single PO 80 mg/kg, female, read-out: AUClast Ratio Brain/Plasma): 0.388 | AUC(0-t) (female, plasma, po, 40 mg/kg, single PO 40 mg/kg): 6560 ng·h/mL | AUC(0-t) (female, plasma, po, 80 mg/kg, 7-day repeat PO 80 mg/kg): 19500 ng·h/mL | AUC(0-t) (female, plasma, po, 80 mg/kg, single PO 80 mg/kg): 15800 ng·h/mL | Kp (male, brain, po, 40 mg/kg, mice, single PO 40 mg/kg, male, read-out: AUClast Ratio Brain/Plasma): 0.283 | Kp (male, brain, po, 80 mg/kg, mice, repeat PO 80 mg/kg, male, read-out: AUClast Ratio Brain/Plasma): 0.536 | Kp (male, brain, po, 80 mg/kg, mice, single PO 80 mg/kg, male, read-out: AUClast Ratio Brain/Plasma): 0.361 | AUC(0-t) (male, plasma, po, 40 mg/kg, single PO 40 mg/kg): 6640 ng·h/mL | AUC(0-t) (male, plasma, po, 80 mg/kg, 7-day repeat PO 80 mg/kg): 16000 ng·h/mL | AUC(0-t) (male, plasma, po, 80 mg/kg, single PO 80 mg/kg): 15400 ng·h/mL | drug accumulation in brain [5]: no obvious drug accumulation | drug accumulation in plasma [5]: no obvious drug accumulation | mean concentration at 24 hr post-dose as % of Cmax (mice, 7-day repeat PO 80 mg/kg, brain, both sexes): 14.4-18.9% | mean concentration at 24 hr post-dose as % of Cmax (mice, 7-day repeat PO 80 mg/kg, plasma, both sexes): 2.68-3.94% | AUClast Ratio, group 2 vs 1 (mice, brain, female): 2.81 | Cmax Ratio, group 2 vs 1 (mice, brain, female): 2.89 | AUClast Ratio, group 2 vs 1 (mice, brain, male): 2.96 | Cmax Ratio, group 2 vs 1 (mice, brain, male): 3.00 | AUClast Ratio, group 2 vs 1 (mice, plasma, female): 2.41 | Cmax Ratio, group 2 vs 1 (mice, plasma, female): 3.47 | AUClast Ratio, group 2 vs 1 (mice, plasma, male): 2.32 | Cmax Ratio, group 2 vs 1 (mice, plasma, male): 3.50 | distribution (mice, all dose groups): distributed to brain | duration of brain exposure (mice, all dose groups): 24 h | gender-related differences in exposure in brain [6]: No gender-related differences | gender-related differences in exposure in plasma [6]: No gender-related differences | AUClast ratios females/males (mice, brain): 1.10-1.34 | Cmax ratios females/males (mice, brain): 1.11-1.24 | AUClast ratios 7-day repeat vs single-dose 80 mg/kg (mice, brain, both sexes): 1.54-1.87 | AUClast ratios 80 vs 40 mg/kg single dose (mice, brain, both sexes): 2.81-2.96 | Cmax ratios 7-day repeat vs single-dose 80 mg/kg (mice, brain, both sexes): 1.44-1.60 | AUClast ratios females/males (mice, plasma): 0.989-1.22 | Cmax ratios females/males (mice, plasma): 0.967-1.27 | AUClast ratios 7-day repeat vs single-dose 80 mg/kg (mice, plasma, both sexes): 1.04-1.23 | AUClast ratios 80 vs 40 mg/kg single dose (mice, plasma, both sexes): 2.32-2.41 | AUClast Ratio Female/Male (mice, repeat PO 80 mg/kg, brain): 1.34

— patent US20230293539A1, “MLL1-WDR5 PROTEIN-PROTEIN INTERACTION INHIBITOR COMPOUNDS AND USES THEREOF” (HUYABIO International, LLC, priority 2022, published 2023)
